Measurements published in US6147100A, “Pyrrolidine derivatives having phospholipase A2 inhibitory activity” (Shionogi & Co., Ltd., priority 1997, dated 2000).
pIC50: −log10 of the molar value.

Legend:
cPLA2 = biological target: T1, cPLA2 (Homo sapiens, UniProt P47712); test: cPLA2 Inhibitory Activity; assay type: biochemical; settings: 1-palmitoyl-2-[14C]-arachidonoyl-sn-glycero-3-phosphocholine 2.5 μM, sn-1,2-dioleoylglycerol 1.25 μM; pH 7.5, 15 min at 37° C.
T1 sequence (P47712 1-749): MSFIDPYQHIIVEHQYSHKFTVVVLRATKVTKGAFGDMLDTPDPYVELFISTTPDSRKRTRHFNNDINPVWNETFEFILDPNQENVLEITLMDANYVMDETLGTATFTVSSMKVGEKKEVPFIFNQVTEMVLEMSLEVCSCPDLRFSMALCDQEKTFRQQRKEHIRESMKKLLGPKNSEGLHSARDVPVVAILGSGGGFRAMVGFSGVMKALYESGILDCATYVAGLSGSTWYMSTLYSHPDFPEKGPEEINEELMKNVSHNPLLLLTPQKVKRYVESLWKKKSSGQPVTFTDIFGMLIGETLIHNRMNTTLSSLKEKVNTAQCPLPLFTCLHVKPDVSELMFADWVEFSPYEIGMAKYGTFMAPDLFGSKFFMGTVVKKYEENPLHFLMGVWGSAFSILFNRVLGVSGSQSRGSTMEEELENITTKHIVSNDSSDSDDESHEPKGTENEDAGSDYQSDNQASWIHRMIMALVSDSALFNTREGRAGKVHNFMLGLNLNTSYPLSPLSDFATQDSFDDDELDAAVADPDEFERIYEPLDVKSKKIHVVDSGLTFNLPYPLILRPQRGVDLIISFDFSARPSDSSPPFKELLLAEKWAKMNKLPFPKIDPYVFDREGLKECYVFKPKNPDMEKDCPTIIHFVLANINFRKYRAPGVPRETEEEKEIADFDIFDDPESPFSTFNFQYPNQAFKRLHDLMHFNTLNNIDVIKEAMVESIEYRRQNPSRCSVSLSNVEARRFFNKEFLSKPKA
Description: Test Example 1 cPLA2 Inhibitory Activity The compounds of the present invention were tested for the cPLA2 inhibitory activity according to the method disclosed in […]. Roberts, […], and J. E. Putnam, J. Biol. Chem., 1991, 266, 5268-5272 as outlined below. […] The reaction mixture includes 50 mM HEPES buffer (pH 7.5), 1 mM calcium chloride, 150 mM sodium chloride, 0.1 mg/ml bovine serum albumin, and 1.7 mM dithiothreitol. To the reaction mixture was added the compound of the present invention and the substrate solution. The reaction was allowed to start by adding an enzyme and continued for 15 min at 37° C. The fatty acids released by the reaction were extracted by the method described in V. P. Dole, and H. Meinertz, J. Biol. Chem., 1960, 235, 2595-2599 and its radiation activity was measured on a liquid scintillation counter. Control was obtained by conducting the experiment in the same manner except that a compound of the present invention was not added.

[1] = tested on: production of prostaglandin E2 by human fibroblasts; test: Inhibition of Production of Prostaglandin E2 in Human Fibroblasts (IL-1 stimulation); assay type: cell-based; settings: Fibroblast; human fibroblasts under stimulation with IL-1
Description: Test Example 2 Inhibition of Production of Prostaglandin E2 in Human Fibroblasts.
In order to examine the availability of the composition for inhibiting cytosolic phospholipase A2 (cPLA2) on the cells, the compounds of the present invention were tested for the effect on the production of prostaglandin E2 by human fibroblasts under the stimulation with IL-1 according to the method of J. M. Dayer et al (CACHECTIN/TUMOR NECROSIS FACTOR STIMULATES COLLAGENASE AND PROSTAGLANDIN E2 PRODUCTION BY HUMAN SYNOVIAL CELLS AND DERMAL FIBROBLASTS; J. M. Dayer, B, Beutler and A, Cerami, J. EXP. Med., 1985, 162, 2163-2168.).

Structure (SMILES)	pIC50 (cPLA2)	pIC50 [1]
O=C1NC(=O)/C(=C/c2ccc(C(=O)NC[C@@H]3C[C@@H](OCc4ccccc4I)CN3C(=O)c3ccccc3C(=O)c3ccc(F)cc3)cc2)S1 [Compound A-34]	7.15	6.32
O=C1NC(=O)/C(=C/c2ccc(C(=O)NC[C@@H]3C[C@@H](OCc4ccccc4-c4ccccc4)CN3C(=O)c3sccc3C(=O)c3ccccc3)cc2)S1 [Compound A-12]	5.51	7.00
O=C(/C=C/c1ccc(/C=C2\SC(=O)NC2=O)cc1)NC[C@@H]1C[C@@H](OCc2ccccc2-c2ccccc2)CN1C(=O)c1ccccc1C(=O)c1ccc(F)cc1 [Compound A-52]	7.28	6.21
O=C1NC(=O)/C(=C/c2ccc(C(=O)NC[C@@H]3C[C@@H](OCc4ccccc4-c4ccccc4)CN3C(=O)C3CCCCC3C(=O)c3ccccc3)cc2)S1 (stereo partly shown) [Compound A-10]	5.49	6.33
O=C1NC(=O)/C(=C/c2ccc(C(=O)NC[C@@H]3C[C@@H](OCc4ccccc4-c4ccccc4)CN3C(=O)c3ccccc3C(=O)c3ccoc3)cc2)S1 [Compound A-17]	5.80	6.15
O=C1NC(=O)/C(=C/c2ccc(C(=O)NC[C@@H]3C[C@@H](Oc4ccccc4-c4cccc([N+](=O)[O-])c4)CN3C(=O)c3ccccc3C(=O)c3ccc(F)cc3)cc2)S1 [Compound A-111]	7.18	6.33
O=C1NC(=O)/C(=C/c2ccc(S(=O)(=O)NC[C@@H]3C[C@@H](OCc4ccccc4-c4ccccc4)CN3C(=O)c3ccccc3C(=O)c3ccc(F)cc3)s2)S1 [Compound A-60]	5.89	5.89
O=C1NC(=O)/C(=C/c2ccc(C(=O)NC[C@@H]3C[C@@H](OCc4ccccc4-c4cccc([N+](=O)[O-])c4)CN3C(=O)c3ccccc3C(=O)c3ccc(F)cc3)cc2)S1 [Compound A-45]	7.13	6.42
O=C1NC(=O)/C(=C/c2ccc(C(=O)NC[C@@H]3C[C@@H](Oc4ccccc4Oc4ccccc4)CN3C(=O)c3ccccc3C(=O)c3ccc(F)cc3)cc2)S1 [Compound A-119]	7.52	5.55
O=C1NC(=O)/C(=C/c2ccc(C(=O)NC[C@@H]3C[C@@H](Oc4ccccc4-c4ccccc4)CN3C(=O)c3ccccc3C(=O)c3ccc(F)cc3)cc2)S1 [Compound A-67]	7.16	6.41
O=C1NC(=S)S/C1=C\c1ccc(C(=O)NC[C@@H]2C[C@@H](OCc3ccccc3-c3ccccc3)CN2C(=O)c2ccccc2C(=O)c2ccc(F)cc2)s1 [Compound A-59]	7.33	6.03
O=C1NC(=O)/C(=C/c2ccc(C(=O)NC[C@@H]3C[C@@H](OCc4ccccc4-c4ccccc4)CN3C(=O)c3ccccc3C(=O)c3ccc(F)cc3)cc2)S1 [Compound A-16]	7.10	6.59
CC(C)c1cccc(Br)c1O[C@@H]1C[C@@H](CNC(=O)c2ccc(/C=C3\SC(=O)NC3=O)cc2)N(C(=O)c2ccccc2C(=O)c2ccc(F)cc2)C1 [Compound A-100]		6.49
O=C1NC(=S)S/C1=C\c1ccc(S(=O)(=O)NC[C@@H]2C[C@@H](OCc3ccccc3-c3ccccc3)CN2C(=O)c2ccccc2C(=O)c2ccc(F)cc2)cc1 [Compound A-63]		6.05
O=C(/C=C/C#C/C=C1\SC(=O)NC1=O)NC[C@@H]1C[C@@H](OCc2ccccc2-c2ccccc2)CN1C(=O)c1ccccc1C(=O)c1ccc(F)cc1 [Compound A-66]	6.68	
COc1cccc(-c2cccc(O[C@@H]3C[C@@H](CNC(=O)c4ccc(/C=C5\SC(=O)NC5=O)cc4)N(C(=O)c4ccccc4C(=O)c4ccc(F)cc4)C3)c2)c1 [Compound A-99]	7.43	
O=C1NC(=O)/C(=C/c2ccc(C(=O)NC[C@@H]3C[C@@H](Oc4ccccc4-c4ccc(-c5ccccc5)cc4)CN3C(=O)c3ccccc3C(=O)c3ccc(F)cc3)cc2)S1 [Compound A-113]	6.92	
CCOc1cccc(-c2ccccc2O[C@@H]2C[C@@H](CNC(=O)c3ccc(/C=C4\SC(=O)NC4=O)cc3)N(C(=O)c3ccccc3C(=O)c3ccc(F)cc3)C2)c1 [Compound A-110]	7.00	
O=C(COc1ccc(/C=C2\SC(=O)NC2=O)cc1)NC[C@@H]1C[C@@H](OCc2ccccc2-c2ccccc2)CN1C(=O)c1ccccc1C(=O)c1ccc(F)cc1 [Compound A-50]	6.17	
O=C1NC(=S)S/C1=C\c1ccc(S(=O)(=O)NC[C@@H]2C[C@@H](OCc3ccccc3-c3ccccc3)CN2C(=O)c2ccccc2C(=O)c2ccc(F)cc2)s1 [Compound A-61]		6.01
O=C1NC(=O)/C(=C/c2ccc(C(=O)NC[C@@H]3C[C@@H](Oc4ccccc4-c4cccnc4)CN3C(=O)c3ccccc3C(=O)c3ccc(F)cc3)cc2)S1 [Compound A-105]	6.82	
O=C1NC(=O)/C(=C/c2ccc(C(=O)NC[C@@H]3C[C@@H](OCc4ccccc4-c4ccccc4)CN3C(=O)c3ccccc3C(=O)c3ccc(F)cc3)cc2)O1 [Compound A-54]	6.85	
C/C(=C/C(=O)c1ccccc1)C(=O)N1C[C@H](OCc2ccccc2-c2ccccc2)C[C@H]1CNC(=O)c1ccc(/C=C2\SC(=O)NC2=O)cc1 [Compound A-9]	5.26	

The next lines start with results.

pIC50 (cPLA2)	Structure (SMILES)	pIC50 [1]
7.64	O=C1NC(=S)S/C1=C\c1ccc(NC(=O)[C@@H]2C[C@@H](SCc3ccccc3-c3ccccc3)CN2C(=O)c2ccccc2C(=O)c2ccc(F)cc2)cc1 [Compound J-2]	6.02
6.12	O=C1NC(=S)S/C1=C\c1ccc(/C=C\[C@@H]2C[C@@H](OCc3ccccc3-c3ccccc3)CN2C(=O)c2ccccc2C(=O)c2ccc(F)cc2)s1 [Compound E-5]	5.46
6.00	O=C1NC(=O)/C(=C/c2ccc(CCC[C@@H]3C[C@@H](OCc4ccccc4-c4ccccc4)CN3C(=O)c3ccccc3C(=O)c3ccc(F)cc3)cc2)S1 [Compound E-9]	5.19
7.23	CN(Cc1ccccc1-c1ccccc1)[C@@H]1C[C@@H](C(=O)Nc2ccc(/C=C3\SC(=S)NC3=O)cc2)N(C(=O)c2ccccc2C(=O)c2ccc(F)cc2)C1 [Compound N-3]	6.00
7.15	O=C1NC(=S)S/C1=C\c1ccc(C(=O)NC[C@@H]2C[C@@H](SCc3ccccc3-c3ccccc3)CN2C(=O)c2ccccc2C(=O)c2ccc(F)cc2)cc1 [Compound I-6]	6.59
4.82	O=C1NC(=O)/C(=C/c2ccc(C(=O)NCCC[C@@H]3C[C@@H](OCc4ccccc4-c4ccccc4)CN3C(=O)c3ccccc3C(=O)c3ccc(F)cc3)cc2)S1 [Compound F-1]	
5.70	O=C1NC(=O)/C(=C/c2ccc(C(=O)NC[C@@H]3C[C@@H](NC(=O)c4ccccc4-c4ccccc4)CN3C(=O)c3ccccc3C(=O)c3ccc(F)cc3)cc2)S1 [Compound M-16]	
5.80	CC(=O)N(Cc1ccc(/C=C2\SC(=S)NC2=O)cc1)C[C@@H]1C[C@@H](OCc2ccccc2-c2ccccc2)CN1C(=O)c1ccccc1C(=O)c1ccc(F)cc1 [Compound G-5]	
7.11	O=C1NC(=S)S/C1=C\c1ccc(/C=C/C[C@@H]2C[C@@H](OCc3ccccc3-c3ccccc3)CN2C(=O)c2ccccc2C(=O)c2ccc(F)cc2)cc1 [Compound E-13]	
5.89	O=C1NC(=O)/C(=C/c2ccc(CN(C[C@@H]3C[C@@H](OCc4ccccc4-c4ccccc4)CN3C(=O)c3ccccc3C(=O)c3ccc(F)cc3)C(=O)c3ccccc3)cc2)S1 [Compound G-9]	
5.85	CN(Cc1ccccc1)[C@@H]1C[C@@H](CNC(=O)c2ccc(/C=C3\SC(=S)NC3=O)cc2)N(C(=O)c2ccccc2C(=O)c2ccc(F)cc2)C1 [Compound M-2]	
5.07	O=C1NC(=O)/C(=C/C2CCN(C(=O)[C@@H]3C[C@@H](SCc4ccccc4-c4ccccc4)CN3C(=O)c3ccccc3C(=O)c3ccc(F)cc3)CC2)S1 [Compound J-5]	
